# Paper PMC6048268, “Resveratrol Inhibits Key Steps of Steroid Metabolism in a Human Estrogen-Receptor Positive Breast Cancer Model: Impact on Cellular Proliferation” (Frontiers in Pharmacology, 2018)
# Columns and labels:
# SULT2A1 mRNA = experiment: Real-time PCR, SULT2A1 mRNA expression in MCF-7 cells; format: cell-based, human; conditions: 10 μM RES, 24 and 48 h, data not shown
# Procedure: MCF-7 breast cancer cells were seeded in 6-well plates at a density of 1.0 × 10^6 cells per well and allowed to attach overnight. […] Expression profiling of genes of interest was performed as detailed previously ([Mechtcheriakova et al., 2007]; [Meshcheryakova et al., 2016]). Upon treatment, total RNA was isolated using peqGOLD TriFAST^TM reagent (VWR, Vienna, Austria) according to the manufacturer’s protocol. 1 μg RNA was used for cDNA generation using the High Capacity cDNA Reverse Transcription Kit (Thermo Fisher Scientific, Inc.) according to the instructions of the manufacturer. Real-time PCR analysis was performed in the 96-well plate format on a QuantStudio 12K Flex Real-Time PCR System (Thermo Fisher Scientific, Inc.). SULT1A1 and SULT2A1 were detected using the corresponding TaqMan Assays (Thermo Fisher Scientific, Inc.). […] HKGs primers were self-designed using the Primer Express 3.0 software (Thermo Fisher Scientific, Inc.) and validated using the Human Total RNA Master Panel (TaKaRa Bio, Inc., Saint-Germain-en-Laye, France), as described before ([Mechtcheriakova et al., 2007], [2011]); Primers: UBC forward: […]; UBC reverse: […]; GAPDH forward: […]; GAPDH reverse: […]; ACTB forward: […]; ACTB reverse: […]. For relative quantification, data were analyzed by applying the ΔΔCT method. […]
# SULT1A1 mRNA = experiment: Real-time PCR, SULT1A1 mRNA expression in MCF-7 cells; format: cell-based, human; conditions: 10 μM RES; for down-regulation of SULT1A1 mRNA: non-significant
# Procedure: MCF-7 breast cancer cells were seeded in 6-well plates at a density of 1.0 × 10^6 cells per well and allowed to attach overnight. […] Expression profiling of genes of interest was performed as detailed previously ([Mechtcheriakova et al., 2007]; [Meshcheryakova et al., 2016]). Upon treatment, total RNA was isolated using peqGOLD TriFAST^TM reagent (VWR, Vienna, Austria) according to the manufacturer’s protocol. 1 μg RNA was used for cDNA generation using the High Capacity cDNA Reverse Transcription Kit (Thermo Fisher Scientific, Inc.) according to the instructions of the manufacturer. Real-time PCR analysis was performed in the 96-well plate format on a QuantStudio 12K Flex Real-Time PCR System (Thermo Fisher Scientific, Inc.). SULT1A1 and SULT2A1 were detected using the corresponding TaqMan Assays (Thermo Fisher Scientific, Inc.). […] HKGs primers were self-designed using the Primer Express 3.0 software (Thermo Fisher Scientific, Inc.) and validated using the Human Total RNA Master Panel (TaKaRa Bio, Inc., Saint-Germain-en-Laye, France), as described before ([Mechtcheriakova et al., 2007], [2011]); Primers: UBC forward: […]; UBC reverse: […]; GAPDH forward: […]; GAPDH reverse: […]; ACTB forward: […]; ACTB reverse: […]. For relative quantification, data were analyzed by applying the ΔΔCT method. Expression levels of target genes were normalized to the average of the HKGs and shown relative to unstimulated cells (0 h time-point).
smiles,measurement,setting,value
"Oc1ccc(/C=C/c2cc(O)cc(O)c2)cc1 [RES, 3,5,4′-trihydroxy-trans-stilbene]",effect on SULT2A1 expression,SULT2A1 mRNA,marginally down-regulated
same,down-regulation of SULT1A1 mRNA,SULT1A1 mRNA; 24 h,23.6 ± 13.0%
same,down-regulation of SULT1A1 mRNA,SULT1A1 mRNA; 48 h,30.4 ± 11.0%
same,effect on transcription of SULT1A1,SULT1A1 mRNA; up to 4 h,did not affect
